From ChEMBL document CHEMBL6096698, “Discovery of a Selective and Orally Bioavailable RET Degrader with Effectiveness in Various Mutations” (J Med Chem, 2025)

Legend:
[1] = system: BaF3; assay: PROTAC activity at CRBN/KIF5B-RET (unknown origin) expressed in mouse BaF3 cells assessed as induction of RET degradation at 10 nM incubated for 24 hrs by immunoblot analysis relative to control; assay type: cell-based
[2] = system: BaF3; assay: Antiproliferative activity against mouse BaF3 cells stably expressing KIF5B-RET G810R mutant incubated for 72 hrs by CCK8 assay; assay type: functional, cell-based; settings: BaF3, 72 h
[3] = system: BaF3; assay: Antiproliferative activity against mouse BaF3 cells stably expressing KIF5B-RET G810C mutant incubated for 72 hrs by CCK8 assay; assay type: functional, cell-based; settings: BaF3, 72 h
[4] = system: BaF3; assay: Antiproliferative activity against mouse BaF3 cells stably expressing KIF5B-RET V804M mutant incubated for 72 hrs by CCK8 assay; assay type: functional, cell-based; settings: BaF3, 72 h
[5] = system: BaF3; assay: Antiproliferative activity against mouse BaF3 cells stably expressing KIF5B-RET G810S mutant incubated for 72 hrs by CCK8 assay; assay type: functional, cell-based; settings: BaF3, 72 h
[6] = system: BaF3; assay: Antiproliferative activity against mouse BaF3 cells stably expressing KIF5B-RET incubated for 72 hrs by CCK8 assay; assay type: functional, cell-based; settings: BaF3, 72 h

SMILES | Activity [1] | IC50 [2] | IC50 [3] | IC50 [4] | IC50 [5] | IC50 [6]
COc1ccc(CN2C3CC2CN(c2ccc(-c4cc(N5CCC(N6CCN(C(=O)CCCCCCCNc7ccc8c(c7)C(=O)N(C7CCC(=O)NC7=O)C8=O)CC6)CC5)cn5ncc(C#N)c45)cn2)C3)cn1 (configuration not stated) | 58% | 614 nM | 190 nM | 14.2 nM | 86.1 nM | 3.4 nM
COc1ccc(CN2C3CC2CN(c2ccc(-c4cc(N5CCN(C(=O)CCCCCNc6cccc7c6C(=O)N(C6CCC(=O)NC6=O)C7=O)CC5)cn5ncc(C#N)c45)cn2)C3)cn1 (configuration not stated) | 52% | 794 nM | 216 nM | 17.2 nM | 105 nM | 6.1 nM
COc1ccc(CN2C3CC2CN(c2ccc(-c4cc(N5CCN(C(=O)CCCCCCCNc6ccc7c(c6)C(=O)N(C6CCC(=O)NC6=O)C7=O)CC5)cn5ncc(C#N)c45)cn2)C3)cn1 (configuration not stated) | 52% | 714 nM | 228 nM | 14.1 nM | 102 nM | 5.7 nM
COc1ccc(CN2C3CC2CN(c2ccc(-c4cc(N5CCC(N6CCN(C(=O)CCCCCCCNc7cccc8c7C(=O)N(C7CCC(=O)NC7=O)C8=O)CC6)CC5)cn5ncc(C#N)c45)cn2)C3)cn1 (configuration not stated) | 50% | 672 nM | 212 nM | 17.8 nM | 93.5 nM | 5.9 nM
COc1ccc(CN2C3CC2CN(c2ccc(-c4cc(N5CCC(N6CCN(C(=O)CNc7cccc8c7C(=O)N(C7CCC(=O)NC7=O)C8=O)CC6)CC5)cn5ncc(C#N)c45)cn2)C3)cn1 (configuration not stated) | 36% | 626 nM | 198 nM | 15.3 nM | 89.8 nM | 14.4 nM
COc1ccc(CN2C3CC2CN(c2ccc(-c4cc(N5CCC(N6CCN(CCCC#Cc7cccc8c7C(=O)N(C7CCC(=O)NC7=O)C8=O)CC6)CC5)cn5ncc(C#N)c45)cn2)C3)cn1 (configuration not stated) | 62% | 206 nM | 54.3 nM | 9.3 nM | 63.7 nM | 4.3 nM
COc1ccc(CN2C3CC2CN(c2ccc(-c4cc(N5CCN(C(=O)CCCNc6cccc7c6C(=O)N(C6CCC(=O)NC6=O)C7=O)CC5)cn5ncc(C#N)c45)cn2)C3)cn1 (configuration not stated) | 44% | 1140 nM | 1020 nM | 142 nM | 272 nM | 12.2 nM
COc1ccc(CN2C3CC2CN(c2ccc(-c4cc(N5CCC(N6CCN(C(=O)CNc7ccc8c(c7)C(=O)N(C7CCC(=O)NC7=O)C8=O)CC6)CC5)cn5ncc(C#N)c45)cn2)C3)cn1 (configuration not stated) | 52% | 572 nM | 206 nM | 16.6 nM | 81.9 nM | 5.3 nM
COc1ccc(CN2C3CC2CN(c2ccc(-c4cc(N5CCC(N6CCN(CCCCCC#Cc7cccc8c7CN(C7CCC(=O)NC7=O)C8=O)CC6)CC5)cn5ncc(C#N)c45)cn2)C3)cn1 (configuration not stated) | 40% | 737 nM | 61.8 nM | 27.6 nM | 105 nM | 12.5 nM
COc1ccc(CN2C3CC2CN(c2ccc(-c4cc(N5CCC(N6CCN(CCCC#Cc7ccc8c(c7)C(=O)N(C7CCC(=O)NC7=O)C8=O)CC6)CC5)cn5ncc(C#N)c45)cn2)C3)cn1 (configuration not stated) | 60% | 321 nM | 89.2 nM | 12.4 nM | 84.1 nM | 5.1 nM
COc1ccc(CN2C3CC2CN(c2ccc(-c4cc(N5CCN(CC6CCN(c7ccc8c(c7)C(=O)N(C7CCC(=O)NC7=O)C8=O)CC6)CC5)cn5ncc(C#N)c45)cn2)C3)cn1 (configuration not stated) | 41% | 1890 nM | 192 nM | 21.4 nM | 126 nM | 10.3 nM
COc1ccc(CN2C3CC2CN(c2ccc(-c4cc(N5CCN(C(=O)CCCCCNc6ccc7c(c6)C(=O)N(C6CCC(=O)NC6=O)C7=O)CC5)cn5ncc(C#N)c45)cn2)C3)cn1 (configuration not stated) | 49% | 811 nM | 232 nM | 17.4 nM | 125 nM | 6.8 nM
